Results: patent US20250197351A1, “C4-CARBOXYLIC ACID-S[…] DERIVATIVES AND METHODS OF USING” (priority 2022, published 2025)
Several values for one entry are separate records, joined by “and”; a condition that tells them apart may be missing. Equal entries are not always repeated.

What was measured:
[1] = target: T1, 5-HT1A receptor (Homo sapiens, UniProt P08908); test: cAMP-Glo assay of 5-HT1A receptor modulation, CHO-K1/5-HT1A/Ga15 (+5-HT1A) vs CHO-K1/Ga15 (−5-HT1A) cells; format: cell-based; conditions: +5-HT1A vs −5-HT1A CHO-K1 cells; 4 μM forskolin; increasing ligand concentration
T1 construct: host or cells: CHO-K1 (co-expressing Ga15)
T1 sequence (P08908 1-422): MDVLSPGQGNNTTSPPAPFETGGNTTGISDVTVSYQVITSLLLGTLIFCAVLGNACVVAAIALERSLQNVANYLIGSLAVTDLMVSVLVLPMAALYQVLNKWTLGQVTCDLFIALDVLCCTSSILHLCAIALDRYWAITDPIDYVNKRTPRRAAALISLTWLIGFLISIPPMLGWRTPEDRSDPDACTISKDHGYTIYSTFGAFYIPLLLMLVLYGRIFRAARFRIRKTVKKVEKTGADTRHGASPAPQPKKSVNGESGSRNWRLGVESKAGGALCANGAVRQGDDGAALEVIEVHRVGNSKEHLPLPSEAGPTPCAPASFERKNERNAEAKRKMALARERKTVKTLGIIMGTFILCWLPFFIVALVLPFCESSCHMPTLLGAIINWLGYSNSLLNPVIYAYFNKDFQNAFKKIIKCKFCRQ

[2] = target: T2, 5-HT2A receptor (5-HT2AR) (Mus musculus, UniProt P35363); test: Drug-induced Head Twitch Response (HTR); format: in vivo; conditions: 1 mg/kg i.p., 15-to-30-minute window post-drug, relative to vehicle
T2 construct: host or cells: C57BL/6 mice, in vivo (neuronal receptor)

[3] = Mouse pharmacokinetic (PK) study, parent compound and psilocin metabolite in plasma; format: in vivo; conditions: for bioavailability: male, C57Bl/6, mouse, plasma, po; for bioavailability / F(%): parent compound, AUC0-tlast used; for AUC0-inf/Dose / AUC0-tlast/Dose / Cmax/Dose: parent compound in plasma
From the text: Briefly, the procedure was as follows. […] 19, 2022.

[4] = 1 mg/kg i.v., each animal, 1 mg/kg
[5] = 1 mg/kg p.o., each animal, 1 mg/kg
[6] = 3 mg/kg p.o., each animal, 3 mg/kg
[7] = 10 mg/kg p.o., each animal, 10 mg/kg

T2 sequence (P35363 whole entry): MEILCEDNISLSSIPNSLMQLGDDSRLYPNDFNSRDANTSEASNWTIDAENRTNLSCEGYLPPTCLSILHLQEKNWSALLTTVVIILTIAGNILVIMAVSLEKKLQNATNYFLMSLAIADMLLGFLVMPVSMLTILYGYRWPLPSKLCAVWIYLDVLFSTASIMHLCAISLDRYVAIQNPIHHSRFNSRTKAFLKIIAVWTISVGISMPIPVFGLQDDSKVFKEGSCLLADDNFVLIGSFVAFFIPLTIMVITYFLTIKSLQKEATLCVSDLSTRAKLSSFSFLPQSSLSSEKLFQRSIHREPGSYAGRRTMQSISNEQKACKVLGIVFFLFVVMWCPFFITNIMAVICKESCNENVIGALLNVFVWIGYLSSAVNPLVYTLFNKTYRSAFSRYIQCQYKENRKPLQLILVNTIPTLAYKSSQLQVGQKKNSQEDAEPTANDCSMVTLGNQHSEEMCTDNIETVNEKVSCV

## CN(C)CCc1c[nH]c2cccc(OC(=O)c3ccc(Br)cc3)c12 [C(I)]
[1]
  5-HT1A receptor modulation (reduction of forskolin-induced cAMP): mild receptor modulation at higher ligand concentrations
[2]
  Head Twitch Response (HTR) incidence: Elevated incidences of HTR
[3]; 1 mg/kg, 1 mg/kg p.o., M37 (i.v. group) considered as an outlier, mean ± SD
  bioavailability: 2.3 ± 1.76%
[3]; 3 mg/kg, 3 mg/kg p.o., M37 (i.v. group) considered as an outlier, mean ± SD
  bioavailability: 3.18 ± 0.189%
[3]; 3 mg/kg, 3 mg/kg p.o., if M37 (i.v. group) is considered as an outlier, each animal
  bioavailability: 3.02%
[3]; 10 mg/kg, 10 mg/kg p.o., M37 (i.v. group) considered as an outlier, mean ± SD
  bioavailability: 3.22 ± 0.731%
[3]; 10 mg/kg, 10 mg/kg p.o., if M37 (i.v. group) is considered as an outlier, each animal
  bioavailability: 2.71%
[3]; parent C(I), 1 mg/kg i.v., 8 h, each animal, BLQ = below 0.5 ng/mL, 1 mg/kg
  Plasma concentration: BLQ (2×) and No Peak
[3]; parent C(I), 1 mg/kg p.o., 1 h, each animal, BLQ = below 0.5 ng/mL, 1 mg/kg
  Plasma concentration: BLQ
[3]; parent C(I), 1 mg/kg p.o., 2 h, each animal, BLQ = below 0.5 ng/mL, 1 mg/kg
  Plasma concentration: BLQ
[3]; parent C(I), 1 mg/kg p.o., 4 h, each animal, BLQ = below 0.5 ng/mL, 1 mg/kg
  Plasma concentration: BLQ
[3]; parent C(I), 1 mg/kg p.o., 6 h, each animal, BLQ = below 0.5 ng/mL
  Plasma concentration: BLQ
[3]; parent C(I), 1 mg/kg p.o., 8 h, each animal, BLQ = below 0.5 ng/mL
  Plasma concentration: BLQ
[3]; parent C(I), 1 mg/kg p.o., 24 h, each animal, BLQ = below 0.5 ng/mL, 1 mg/kg
  Plasma concentration: No Peak and No (2×)
[3]; parent C(I), 3 mg/kg p.o., 1 h, each animal, BLQ = below 0.5 ng/mL, 3 mg/kg
  Plasma concentration: 1.33 ng/mL
[3]; parent C(I), 3 mg/kg p.o., 6 h, each animal, BLQ = below 0.5 ng/mL, 3 mg/kg
  Plasma concentration: 0.250 ng/mL
[3]; parent C(I), 3 mg/kg p.o., 8 h, each animal, BLQ = below 0.5 ng/mL
  Plasma concentration: BLQ
[3]; parent C(I), 3 mg/kg p.o., 24 h, each animal, BLQ = below 0.5 ng/mL
  Plasma concentration: No Peak
[3]; parent C(I), 10 mg/kg p.o., 4 h, each animal, BLQ = below 0.5 ng/mL, 10 mg/kg
  Plasma concentration: 3.01 ng/mL
[3]; parent C(I), 10 mg/kg p.o., 24 h, each animal, BLQ = below 0.5 ng/mL
  Plasma concentration: No
[3]; [4]
  AUC0-inf/Dose: 1014 kg·ng·h/mL/mg and 64.4 kg·ng·h/mL/mg and 51.9 kg·ng·h/mL/mg
  AUC0-tlast/Dose: 1006 kg·ng·h/mL/mg and 63.7 kg·ng·h/mL/mg and 51.4 kg·ng·h/mL/mg
[3]; 1 mg/kg i.v., mean of n = 2 (without the possible outlier M37)
  AUC0-tlast/Dose: 57.6 (n = 2) h*kg*ng/mL/mg
[3]; 1 mg/kg i.v., mean ± SD
  AUC0-inf/Dose: 377 ± 552 kg·ng·h/mL/mg
  AUC0-tlast/Dose: 374 ± 548 kg·ng·h/mL/mg
[3]; [5]
  AUC0-tlast/Dose: 2.09 kg·ng·h/mL/mg and 0.169 kg·ng·h/mL/mg and 1.75 kg·ng·h/mL/mg
  Cmax/Dose: 0.816 kg·ng/mL/mg and 0.54 kg·ng/mL/mg and 1.28 kg·ng/mL/mg
[3]; 1 mg/kg p.o., mean ± SD
  AUC0-tlast/Dose: 1.34 ± 1.02 kg·ng·h/mL/mg
  Cmax/Dose: 0.877 ± 0.376 kg·ng/mL/mg
[3]; [6]
  AUC0-tlast/Dose: 1.75 kg·ng·h/mL/mg and 1.82 kg·ng·h/mL/mg and 1.97 kg·ng·h/mL/mg
  Cmax/Dose: 0.650 kg·ng/mL/mg and 0.720 kg·ng/mL/mg and 0.780 kg·ng/mL/mg
[3]; 3 mg/kg p.o., mean ± SD
  AUC0-tlast/Dose: 1.85 ± 0.110 kg·ng·h/mL/mg
  Cmax/Dose: 0.717 ± 0.0651 kg·ng/mL/mg
[3]; [7]
  AUC0-tlast/Dose: 1.58 kg·ng·h/mL/mg and 1.68 kg·ng·h/mL/mg and 2.36 kg·ng·h/mL/mg
  Cmax/Dose: 0.720 kg·ng/mL/mg and 0.710 kg·ng/mL/mg and 1.09 kg·ng/mL/mg
[3]; 10 mg/kg p.o., mean ± SD
  AUC0-tlast/Dose: 1.87 ± 0.425 kg·ng·h/mL/mg
  Cmax/Dose: 0.840 ± 0.217 kg·ng/mL/mg
[3]; 1 mg/kg p.o., if M37 (i.v. group) is considered as an outlier, each animal, 1 mg/kg
  F(%): 3.01%
[3]; 10 mg/kg p.o., if M37 (i.v. group) is considered as an outlier, each animal, 10 mg/kg
  F(%): 2.90%
[3]; psilocin, prodrug 1 mg/kg i.v., 6 h, each animal, BLQ = below 0.2 ng/mL
  Plasma concentration: BLQ
[3]; psilocin, prodrug 1 mg/kg i.v., 8 h, each animal, BLQ = below 0.2 ng/mL
  Plasma concentration: BLQ
[3]; psilocin, prodrug 1 mg/kg p.o., 8 h, each animal, BLQ = below 0.2 ng/mL
  Plasma concentration: BLQ
[3]; psilocin, prodrug 1 mg/kg p.o., 24 h, each animal, BLQ = below 0.2 ng/mL
  Plasma concentration: No Peak (2×) and BLQ
[3]; psilocin, prodrug 3 mg/kg p.o., 24 h, each animal, BLQ = below 0.2 ng/mL
  Plasma concentration: No Peak
[3]; psilocin, prodrug 10 mg/kg p.o., 24 h, each animal, BLQ = below 0.2 ng/mL
  Plasma concentration: BLQ

## CN(C)CCc1c[nH]c2cccc(OC(=O)c3cccc(C(=O)Oc4cccc5[nH]cc(CCN(C)C)c45)c3)c12 [C(VII)]
[1]
  5-HT1A receptor modulation (reduction of forskolin-induced cAMP): no significant receptor modulation
[2]
  Head Twitch Response (HTR) incidence: Elevated incidences of HTR

## COCCOCCOCC(=O)Oc1cccc2[nH]cc(CCN(C)C)c12 [C(III)]
[1]
  5-HT1A receptor modulation (reduction of forskolin-induced cAMP): significant receptor modulation
[2]
  Head Twitch Response (HTR) incidence: Elevated incidences of HTR

## NCCc1c[nH]c2ccc(O)cc12 [serotonin, reference compound]
[1]
  5-HT1A receptor modulation (reduction of forskolin-induced cAMP): reduction in cAMP levels

## COC(=O)c1cccc(C(=O)Oc2cccc3[nH]cc(CCN(C)C)c23)c1 [C(XLIII)]
[1]
  5-HT1A receptor modulation (reduction of forskolin-induced cAMP): receptor modulation at higher ligand concentrations
